Measured values published in the NIST ThermoML archive (doi:10.1016/j.jct.2018.03.017).
Where “and” joins values, the source holds several entries; their conditions need not be identical. Identical values can stand only once.

Assay: xn = mol fraction of the nth substance listed
Conditions: 96 kPa, Liquid, Pycnometric method

C1CCC2=NCCCN2CC1 [1,8-diaza-7-bicyclo[5.4.0]undecene] + OCC(O)CO
mass density
Conditions | 288.15 K | 293.15 K | 298.15 K | 303.15 K | 308.15 K | 313.15 K | 318.15 K | 323.15 K | 328.15 K
x1 = 0.0501 | 1251.8 kg/m3 | – | 1245.4 kg/m3 | – | 1239 kg/m3 | – | 1232.2 kg/m3 | – | 1224.9 kg/m3
x1 = 0.0909 | 1238.4 kg/m3 | – | 1231.7 kg/m3 | – | 1224.7 kg/m3 | – | 1217.1 kg/m3 | – | 1208.3 kg/m3
x1 = 0.0926 | – | 1236.7 kg/m3 | – | 1229.7 kg/m3 | – | 1222.9 kg/m3 | – | 1216 kg/m3 | –
x1 = 0.1667 | 1211.2 kg/m3 | – | 1204.2 kg/m3 | – | 1196.4 kg/m3 | – | 1188.2 kg/m3 | – | 1180.2 kg/m3
x1 = 0.1902 | – | 1197.8 kg/m3 | – | 1191.9 kg/m3 | – | 1184.5 kg/m3 | – | 1177.6 kg/m3 | –
x1 = 0.2 | 1200.6 kg/m3 | – | 1192.3 kg/m3 | – | 1184.9 kg/m3 | – | 1176.9 kg/m3 | – | 1170.9 kg/m3 and 1169.4 kg/m3
x1 = 0.2153 | 1195.3 kg/m3 | – | 1187 kg/m3 | – | 1179.6 kg/m3 | – | 1171.5 kg/m3 | – | 1164.2 kg/m3
x1 = 0.2306 | 1190.3 kg/m3 | – | 1181.8 kg/m3 | – | 1174.6 kg/m3 | – | 1166.7 kg/m3 | – | 1158.9 kg/m3
x1 = 0.2998 | – | 1161.7 kg/m3 | – | 1156.4 kg/m3 | – | 1149.2 kg/m3 | – | 1142.5 kg/m3 | –
x1 = 0.3059 | 1167.2 kg/m3 | – | 1158 kg/m3 | – | 1150.5 kg/m3 | – | 1142.9 kg/m3 | – | 1136 kg/m3
x1 = 0.3333 | 1159.4 kg/m3 | – | 1149.8 kg/m3 | – | 1142.5 kg/m3 | – | 1134.9 kg/m3 | – | 1128 kg/m3
x1 = 0.3996 | – | 1133.2 kg/m3 | – | 1128.3 kg/m3 | – | 1121.2 kg/m3 | – | 1114.6 kg/m3 | –
x1 = 0.4011 | 1141.5 kg/m3 | – | 1131.6 kg/m3 | – | 1124.1 kg/m3 | – | 1117.3 kg/m3 | – | 1109.7 kg/m3
x1 = 0.5 | 1117.4 kg/m3 | – | 1107.1 kg/m3 and 1108.1 kg/m3 | – | 1100.2 kg/m3 | – | 1091.1 kg/m3 and 1093.5 kg/m3 | – | 1086 kg/m3
x1 = 0.5032 | – | 1108.7 kg/m3 | – | 1102.3 kg/m3 | – | 1095.3 kg/m3 | – | 1087.4 kg/m3 | –
x1 = 0.5632 | 1102.9 kg/m3 | – | 1093.7 kg/m3 | – | 1086.4 kg/m3 | – | 1079.3 kg/m3 | – | 1071.9 kg/m3
x1 = 0.5995 | – | 1088 kg/m3 | – | 1081.9 kg/m3 | – | 1075.9 kg/m3 | – | 1068.3 kg/m3 | –
x1 = 0.625 | 1089.8 kg/m3 | – | 1081 kg/m3 | – | 1073.9 kg/m3 | – | 1066.7 kg/m3 | – | 1059.1 kg/m3
x1 = 0.6992 | – | 1069.6 kg/m3 | – | 1064.2 kg/m3 | – | 1056.8 kg/m3 | – | 1049.7 kg/m3 | –
x1 = 0.75 | 1066.1 kg/m3 and 1065.4 kg/m3 | – | 1058.1 kg/m3 | – | 1050.9 kg/m3 | – | 1042.7 kg/m3 | – | 1035.3 kg/m3
x1 = 0.7998 | – | 1052.3 kg/m3 | – | 1045.7 kg/m3 | – | 1038.7 kg/m3 | – | 1031.5 kg/m3 | –
x1 = 0.8333 | 1051.7 kg/m3 | – | 1044.3 kg/m3 | – | 1037 kg/m3 | – | 1028.7 kg/m3 | – | 1021.1 kg/m3
x1 = 0.9001 | – | 1030.8 kg/m3 | – | 1028.9 kg/m3 | – | 1021.2 kg/m3 | – | 1013.9 kg/m3 | –
x1 = 1 | 1020.6 kg/m3 | 1017.1 kg/m3 | 1014.1 kg/m3 | 1010.9 kg/m3 | 1007.4 kg/m3 | 1004.6 kg/m3 | 1000.8 kg/m3 | 998.4 kg/m3 | 994.2 kg/m3
